# Structures can show the parent of a compound that is named as a salt.
# System: mice (stretching and twisting provoked by intraperitoneal injection of acetic acid)
# Test: Analgesic Activity: acetic acid-induced stretching test in mice (based on Koster et al)
# Assay type: in vivo
# Details: Mus musculus, fasted 24 hours, test product oral 30 minutes before i.p. acetic acid (60 mg/kg), stretchings counted during 15 minutes after injection, read-out: AD50 (dose which reduced by 50% the number of stretching as compared to the controls)
# Experimental: The test was based on that of Koster et al [Fed. Proc., Vol. 18 (1959) p. 412] wherein the intraperitoneal injection of acetic acid provokes in mice repeated stretching and twisting which persists for more than 6 hours and an analgesic prevents or suppresses this syndrom which is considered to be the exteriorization of a diffuse abdominal pain. A solution of 0.6% acetic acid in water containing 10% of arabic gum is used and the dose which causes the syndrom under these conditions is 0.01 ml/g or 60 mg/kg of acetic acid. The test products were orally administered 30 minutes before the intraperitoneal injection of acetic acid and the mice were fasted for 24 hours before the test.
# For each dose and for the controls required in each test, groups of 5 mice were used and the stretchings were observed and counted for each mouse and added for each group, during a period of 15 minutes right after the injection. The AD50 or dose which reduced by 50% the number of stretching as compared to the controls was determined.
row,Compound,ED50 [mg/kg]
1,"O=C(OCCN1CCN(c2cccc(C(F)(F)F)c2)CC1)c1sccc1Nc1ccnc2c(C(F)(F)F)cccc12 [Example 1, 2-[4-(3-trifluoromethylphenyl)-1-piperazinyl]-ethyl 3-[8-trifluoromethyl-4-quinolylamino]-2-thiophene-carboxylate dihydrochloride]",20
2,"O=C(OCCN1CCN(c2ccc(Cl)cc2)CC1)c1sccc1Nc1ccnc2c(C(F)(F)F)cccc12 [Example 2, 2-[4-(4-chlorophenyl)-1-piperazinyl]-ethyl 3-(8-trifluoromethyl-4-quinolylamino)-2-thiophene-carboxylate]",15
3,"O=C(OCCN1CCN(c2cccc(C(F)(F)F)c2)CC1)c1sccc1Nc1ccnc2cc(Cl)ccc12 [Example 3, 2-[4-(3-trifluoromethylphenyl)-1-piperazinyl]-ethyl 3-(7-chloro-4-quinolylamino)-2-thiophene-carboxylate]",20

# Source: patent US4093724A, “Novel-3-(4-quinolylamino)-2-thiophene-carboxylates” (Roussel Uclaf, priority 1976, dated 1978)
